Patent US10851108B2, “Substituted bicyclic heterocyclic compounds” (BRISTOL-MYERS SQUIBB COMPANY, priority 2016, dated 2020)
pIC50: −log10 of the molar value.

Target: hROMK (human Kir1.1) (Homo sapiens (Human), UniProt P48048)
Assay: Thallium Flux Assay
Assay type: cell-based
Settings: CHO T-Rex hROMK stable cell line, 10-point concentration response; read-out: hROMK Th+ Flux IC50
Description: Solutions and reagents: Thallium flux assay was performed using FluxOR kit (F10017, Life Technologies). Loading buffer, assay buffer and stimulus buffer were prepared using kit components. HBSS (Hank's balanced salt solution, Cat #14025-092) was purchased separately from Life Technologies.
To prepare 10 ml of loading buffer: 10 μl of FluxOR dye (reconstituted in DMSO) was first added to 100 μl of powerload concentrate and this mix along with 100 μl of Probenicid (100×) was then added to 9.79 ml of HBSS. Assay buffer (10 ml) was prepared by addition of 2 ml of FluxOR chloride free buffer (5×), 100 μl of Probenicid (100×), and 0.2 ml of Ouabain (13.77 mM) to 7.7 ml of deionized water. Stimulus buffer was composed of 15 mM Tl2SO4, 0.75 mM K2SO4 in FluxOR chloride free buffer (diluted to 1× using deionized water). The final concentration of Tl2SO4 and K2SO4 in the assay plate was 3 mM and 0.15 mM, respectively.
Plating and induction of cells: The CHO T-Rex hROMK (human Kir1.1) stable cell line was maintained in Ham's F12 media supplemented with 10% FBS, 1% Penicillin-Streptomycin, 500 μg/ml Zeocin and 10 μg/ml Blasticidin at 37° C. in a 5% CO2 incubator. One day before the experiment, the cells were dissociated by incubation with Versene solution (15040-066, Life Technologies) for 10 minutes at 37° C. followed by addition of growth media. The cell suspension was centrifuged at 1200 rpm for 5 min. After discarding the supernatant, the cells were resuspended in fresh growth media and cell concentration was determined using a hemocytometer. Next, 0.5 μg/ml of Doxycycline was added to the cell suspension to induce hROMK channel expression and 50 μl (10,000 cells/well) of cell suspension was added to each well of a poly-D lysine coated 384 well black, optically clear bottom plate (6007718, Perkin Elmer). The assay plate was kept at 37° C. in a 5% CO2 incubator.
Assay protocol: On the day of experiment, media was removed and loading buffer was added (30 μl/well) to the assay plate. The cells were incubated in the loading buffer for 30 minutes at 37° C. The loading buffer was then replaced by assay buffer (30 μl/well) followed by addition of test compounds or controls. The cells were incubated with compounds for 30 minutes and the plate was then mounted on FlexStation (Molecular Devices) for fluorescence read out with excitation and emission wavelengths at 488 and 525 nm, respectively. Each well was read for 90 sec at 2 sec interval and the stimulus buffer was added after 20 seconds of baseline recording. The final DMSO concentration was either 0.5 or 1% in the assay plate. […] controls were defined by addition of DMSO or 3 μM of a standard ROMK inhibitor, respectively, to the wells instead of a test compound.
A 10-point concentration response curve was used to estimate the IC50 value of test compounds.
The data in Table 3 is reported with two significant figures.

Chain of hROMK (human Kir1.1) (P48048 whole entry): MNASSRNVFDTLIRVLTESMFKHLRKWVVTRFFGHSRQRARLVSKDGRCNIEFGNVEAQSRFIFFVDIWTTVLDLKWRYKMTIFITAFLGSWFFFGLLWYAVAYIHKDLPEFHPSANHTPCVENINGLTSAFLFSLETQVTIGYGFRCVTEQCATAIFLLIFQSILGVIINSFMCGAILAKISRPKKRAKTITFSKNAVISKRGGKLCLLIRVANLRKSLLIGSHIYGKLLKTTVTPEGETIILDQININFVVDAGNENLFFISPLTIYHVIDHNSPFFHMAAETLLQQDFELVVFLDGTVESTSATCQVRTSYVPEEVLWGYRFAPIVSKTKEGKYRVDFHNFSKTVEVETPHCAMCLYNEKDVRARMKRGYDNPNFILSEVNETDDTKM

SMILES	pIC50
Cc1c(C(O)CN2CCc3nc(-n4ncc5c(C#N)ccnc54)ncc3C2)ccc2c1COC2=O (single isomer, unassigned) [Example 35-I, 1-(6-(2-hydroxy-2-(4-methyl-1-oxo-1,3-dihydroisobenzofuran-5-yl)ethyl)-5,6,7,8-tetrahydropyrido[4,3-d]pyrimidin-2-yl)-1H-pyrazolo[3,4-b]pyridine-4-carbonitrile]	6.10
Cc1c(C(O)CN2CCc3nc(-n4ncc5c(C#N)ccnc54)ncc3C2)ccc2c1COC2=O (single isomer, unassigned) [Example 35-II, 1-(6-(2-hydroxy-2-(4-methyl-1-oxo-1,3-dihydroisobenzofuran-5-yl)ethyl)-5,6,7,8-tetrahydropyrido[4,3-d]pyrimidin-2-yl)-1H-pyrazolo[3,4-b]pyridine-4-carbonitrile]	5.31
Cc1c(C(O)CN2CCc3nc(-n4ncc5ncccc54)ncc3C2)ccc2c1COC2=O (single isomer, unassigned) [Example 41-II, 5-(2-(2-(1H-pyrazolo[4,3-b]pyridin-1-yl)-7,8-dihydropyrido[4,3-d]pyrimidin-6(5H)-yl)-1-hydroxyethyl)-4-methylisobenzofuran-1(3H)-one]	5.92
Cc1c(C(O)CN2CCc3nc(-n4ccc5c(C#N)cncc54)ncc3C2)ccc2c1COC2=O (single isomer, unassigned) [Example 42-II, 1-(6-(2-hydroxy-2-(4-methyl-1-oxo-1,3-dihydroisobenzofuran-5-yl)ethyl)-5,6,7,8-tetrahydropyrido[4,3-d]pyrimidin-2-yl)-1H-pyrrolo[2,3-c]pyridine-4-carbonitrile]	6.68
Cc1c(C(O)CN2CCc3nc(-n4ncc5c(C#N)cncc54)ncc3C2)ccc2c1COC2=O (single isomer, unassigned) [Example 43-II, 1-(6-(2-hydroxy-2-(4-methyl-1-oxo-1,3-dihydroisobenzofuran-5-yl)ethyl)-5,6,7,8-tetrahydropyrido[4,3-d]pyrimidin-2-yl)-1H-pyrazolo[3,4-c]pyridine-4-carbonitrile]	6.19
Cc1c(C(O)CN2CCc3nc(-n4ccc5cc(C#N)cnc54)ncc3C2)ccc2c1COC2=O (single isomer, unassigned) [Example 44-I, 1-(6-(2-hydroxy-2-(4-methyl-1-oxo-1,3-dihydroisobenzofuran-5-yl)ethyl)-5,6,7,8-tetrahydropyrido[4,3-d]pyrimidin-2-yl)-1H-pyrrolo[2,3-b]pyridine-5-carbonitrile]	5.68
Cc1c(C(CO)N2CCc3nc(-n4ccc5cc(C#N)cnc54)ncc3C2)ccc2c1COC2=O (single isomer, unassigned) [Example 45-I, 1-(6-(2-hydroxy-1-(4-methyl-1-oxo-1,3-dihydroisobenzofuran-5-yl)ethyl)-5,6,7,8-tetrahydropyrido[4,3-d]pyrimidin-2-yl)-1H-pyrrolo[2,3-b]pyridine-5-carbonitrile]	5.33
Cc1c(C(O)CN2CCc3nc(-n4ncc5cc(C#N)ccc54)ncc3C2)ccc2c1COC2=O (single isomer, unassigned) [Example 50, 1-(6-(2-hydroxy-2-(4-methyl-1-oxo-1,3-dihydroisobenzofuran-5-yl)ethyl)-5,6,7,8-tetrahydropyrido[4,3-d]pyrimidin-2-yl)-1H-indazole-5-carbonitrile]	6.15
CCOC(=O)c1cnc2cnn(-c3ncc4c(n3)CCN(CC(O)c3ccc5c(c3C)COC5=O)C4)c2c1 (single isomer, unassigned) [Example 51-I, ethyl 1-(6-(2-hydroxy-2-(4-methyl-1-oxo-1,3-dihydroisobenzofuran-5-yl)ethyl)-5,6,7,8-tetrahydropyrido[4,3-d]pyrimidin-2-yl)-1H-pyrazolo[4,3-b]pyridine-6-carboxylate]	6.31
COC(=O)c1cnc2ccn(-c3ncc4c(n3)CCN(CC(O)c3ccc5c(c3C)COC5=O)C4)c2c1 (single isomer, unassigned) [Example 52-I, methyl 1-(6-(2-hydroxy-2-(4-methyl-1-oxo-1,3-dihydroisobenzofuran-5-yl)ethyl)-5,6,7,8-tetrahydropyrido[4,3-d]pyrimidin-2-yl)-1H-pyrrolo[3,2-b]pyridine-6-carboxylate]	5.91
Cc1c(C(O)CN2CCc3nc(-n4cnc5cccnc54)ncc3C2)ccc2c1COC2=O (single isomer, unassigned) [Example 55-I, 5-(2-(2-(3H-imidazo[4,5-b]pyridin-3-yl)-7,8-dihydropyrido[4,3-d]pyrimidin-6(5H)-yl)-1-hydroxyethyl)-4-methylisobenzofuran-1(3H)-one]	5.83
Cc1c(CN2Cc3cnc(Nc4ccc(C#N)c(F)c4)nc3CC2CO)ccc2c1COC2=O (single isomer, unassigned) [Example 57-I, 2-fluoro-4-((7-(hydroxymethyl)-6-((4-methyl-1-oxo-1,3-dihydroisobenzo-furan-5-yl)methyl)-5,6,7,8-tetrahydro-pyrido[4,3-d]pyrimidin-2-yl)amino) benzonitrile]	6.08
Cc1c(C(O)CN2CCc3nc(Nc4cncc(C#N)c4)ncc3C2)ccc2c1COC2=O (single isomer, unassigned) [Example 61-I, 5-((6-(2-hydroxy-2-(4-methyl-1-oxo-1,3-dihydroisobenzofuran-5-yl)ethyl)-5,6,7,8-tetrahydropyrido[4,3-d]pyrimidin-2-yl)amino)nicotinonitrile]	6.25
Cc1c(C(O)CN2CCc3nc(Nc4ccc5oc(=O)n(C)c5c4)ncc3C2)ccc2c1COC2=O (single isomer, unassigned) [Example 62-I, 5-((6-(2-hydroxy-2-(4-methyl-1-oxo-1,3-dihydroisobenzofuran-5-yl)ethyl)-5,6,7,8-tetrahydropyrido[4,3-d]pyrimidin-2-yl)amino)-3-methylbenzo[d] oxazol-2(3H)-one]	5.99
Cc1c(C(O)CN2CCc3nc(Nc4ccc(-n5cnnn5)cn4)ncc3C2)ccc2c1COC2=O (single isomer, unassigned) [Example 63-I, 5-(2-(2-((5-(1H-tetrazol-1-yl)pyridine-2-yl)amino)-7,8-dihydropyrido[4,3-d]pyrimidin-6(5H)-yl)-1-hydroxyethyl)-4-methylisobenzofuran-1(3H)-one]	5.91
COc1cc(Nc2ncc3c(n2)CCN(CC(O)c2ccc4c(c2C)COC4=O)C3)ncc1C#N (single isomer, unassigned) [Example 64-I, 6-((6-(2-hydroxy-2-(4-methyl-1-oxo-1,3-dihydroisobenzofuran-5-yl)ethyl)-5,6,7,8-tetrahydropyrido[4,3-d]pyrimidin-2-yl)amino)-4-methoxynicotinonitrile]	6.42
Cc1c(C(O)CN2CCc3nc(N4CCc5c(C#N)cccc54)ncc3C2)ccc2c1COC2=O (single isomer, unassigned) [Example 65-II, 1-(6-(2-hydroxy-2-(4-methyl-1-oxo-1,3-dihydroisobenzofuran-5-yl)ethyl)-5,6,7,8-tetrahydropyrido[4,3-d]pyrimidin-2-yl)indoline-4-carbonitrile]	6.42
Cc1c(C(O)CN2CCc3nc(-n4cnc5ccccc54)ncc3C2)ccc2c1COC2=O (single isomer, unassigned) [Example 67-I, 5-(2-(2-(1H-benzo[d]imidazol-1-yl)-7,8-dihydropyrido[4,3-d]pyrimidin-6(5H)-yl)-1-hydroxyethyl)-4-methyliso-benzofuran-1(3H)-one]	6.80
N#Cc1ccc(Nc2ncc3c(n2)CCN(Cc2ccc4c(c2)COC4=O)C3)cc1F [Example 2]	6.02
Cc1c(CN2CCc3nc(Nc4ccc5c(c4C)COC5=O)ncc3C2)ccc2c1COC2=O [Example 5, 4-methyl-5-((2-((4-methyl-1-oxo-1,3-dihydroisobenzofuran-5-yl)amino)-7,8-dihydropyrido[4,3-d]pyrimidin-6(5H)-yl)methyl)isobenzofuran-1(3H)-one]	6.10
N#Cc1ccc(Nc2ccc3c(c2)CCN(CCc2ccc4c(c2)COC4=O)C3)cc1F [Example 6, 2-fluoro-4-((2-(2-(1-oxo-1,3-dihydroisobenzofuran-5-yl)ethyl)-1,2,3,4-tetrahydroisoquinolin-6-yl)amino)benzonitrile]	6.92
